The text below walks through data of US7429374B2, “Process for the measurement of the potency of glatiramer acetate” (Teva Pharmaceutical Industries, Ltd., priority 2001, dated 2008).

One assay has as its system GA RS-specific T cells. The experiment in a line: In vitro potency test: IL-2 secretion by GA RS-specific LN cells, ELISA, % potency relative to GA RS. The assay is classed as cell-based, female (SJLXBALB/C)F1 mice. The settings on record: for Response of GA RS-specific T cells (IL-2 secretion), in words: primary culture of LN cells from mice immunized with 250 μg GA RS in CFA; for % Potency: specificity of GA RS-specific LN cells, antigens incubated overnight. The procedure:
Mice were immunized with 250 μg GA RS in CFA. GA RS was produced as described in U.S. Pat. No. 5,800,808 or PCT International Publication No. WO 00/05250. The GA RS was chosen based on the chemical and biological properties being in the midrange of Copaxone® as described above. After 9-11 days, a primary culture of LN cells was prepared, and the cells were incubated with various concentrations of GA RS and with test samples. Following 18-21 hours of incubation at 37° C. in a humidified CO2 incubator, the culture media were collected and the level of IL-2 was measured by ELISA. The T-cell response to each DS batch were tested at two concentrations (within the linear range), and the % potency of the DS batch was calculated relative to that of the GA RS batch.
The GA RS emulsion was transferred into an insulin syringe. Then, 100 μl of the emulsion (250 μg GA per mouse) were injected into four footpads of each naive mouse (about 25 μl into each footpad). The immunized mice were used for the in vitro test 9-11 days following immunization.
The UV lamp was turned on 20 minutes before commencing work in the laminar hood and turned off when work began. Prior to placing any reagents under the hood, the working surface was cleaned with a 70% ethanol solution. Enriched DCCM1 medium was prepared. The enriched DCCM1 and the RPMI medium were pre-warmed at 37° C. prior to use. The mice were sacrificed by cervical dislocation. Each mouse was placed on its back and fastened to a support platform. The abdomen was sprayed with 70% alcohol and a middle incision was made (a 2 cm-long incision was usually sufficient). The skin was intersected towards the hind legs and LN was located from the hind and forelegs. The LN was transferred into a sterile petri dish containing about 5 ml sterile RPMI medium and the LN cells were teased out by a sterile syringe plunger. The sterile syringe was used to collect the cells' suspension from the petri dish (the collection of tissue debris was avoided by using sterile needles). The cells' suspension were transferred into a 50 ml sterile tube.
The cells were centrifuged at 200×g for 10 minutes at room temperature. The cells were re-suspended to a density of 1×10^7 cells/ml with enriched DCCM1.
The in vitro bioassay was performed in a 24-well, flat-bottomed tissue culture test plate at a final volume of 1 ml.
About 10-20 mg of, GA DS from the batch to be tested was weighed accurately and dissolved with ddH2O to 1.2 mg/ml. The OD minus blank of the solution was measured at 275 nm. The OD of the sample was adjusted to approx. 1.03 with ddH2O to obtain a stock solution of 1 mg/ml of GA. The stock solution of 100 μg/ml was prepared with enriched DCCM1 and filtered through a 0.2μ cellulose acetate filter. The stock solution was diluted to 10 and 20 μg/ml as described in Table 2 for the RS batch.
0.5 ml of each GA RS dilution, thus the final concentrations of GA RS in the wells were 25, 15, 10, 5, 2.5 and 1 μg/ml.
0.5 ml of each sample dilution, thus the final concentrations of the test sample in the well were 5 and 10 μg/ml.
The density of the cells was changed depending upon their response to GA. The cultures were kept at 37° C. in a humidified 5% CO2 incubator for 18-21 hrs. The plate was centrifuged at 200×g for 10 minutes at room temperature. The supernatants were collected into cryotubes. The supernatants were divided into working aliquots to avoid repeated freezing/thawing of the samples. The supernatants were stored at −20° C. for up to one week. The hood was cleaned with 70% ethanol solution and dried with Kim wipes. The gloves were removed and the hands were immediately washed with disinfectant.
All samples were tested in triplicate. […]
Background: ELISA stands for enzyme-linked immunosorbent assay.

Another assay deals with EAE. The settings on record: 250 μg/mouse of GA in CFA; this mouse strain. The procedure:
The control group in this experiment was injected with CFA alone. Ten days following immunization, LN cells were removed from the both groups of mice.

Assay [1] deals with exacerbating-remitting multiple sclerosis. The following applies: daily subcutaneous injections (Johnson, 1987); cited from earlier work.
In assay [2] the test system is experimental autoimmune encephalomyelitis (EAE). The following applies: various animal species (Lando et al., 1979; Aharoni, 1993); cited from earlier work.

Take `OC[C@@H](O)[C@@H](O)[C@H](O)[C@H](O)CO` [mannitol]: in the assay with GA RS-specific T cells, the “Response of GA RS-specific T cells (IL-2 secretion), in words” value (“Response of GA RS-specific T cells” below) was “did not affect or interfere”.
With “L-glutamic acid polymer with L-alanine, L-lysine and L-tyrosine, acetate (salt) [GA]”, in the assay with EAE, the “blocking of EAE” value is on record as “at least 80%”. In addition, in assay [1], the progression of disability entry was “slow progression of disability” and the relapse rate entry is reported as “reduce the relapse rate”. Further, in assay [2], the “suppression of EAE” value is “suppress”.
On to Lysozyme: a non-relevant basic protein, for which, in the assay with GA RS-specific T cells, the “Response of GA RS-specific T cells” value is “not recognized” and the “% Potency” value is listed as 0%.
For “MBP pp.87-99: the MBP immunodominant peptide pp. 87-99 (an encephalitogenic peptide) (SRPHLIRLFSRDA; UniProt P02686 87-99, looked up, fragment)” the same measures were “did not respond” and 0%.

B1: Human MBP: human MBP (myelin basic protein) (protein, UniProt P02686 1-304, looked up)
Myelin basic protein: MGNHAGKRELNAEKASTNSETNRGESEKKRNLGELSRTTSEDNEVFGEADANQNNGTSSQDTAVTDSKRTADPKNAWQDAHPADPGSRPHLIRLFSRDAPGREDNTFKDRPSESDELQTIQEDSAATSESLDVMASQKRPSQRHGSKYLATASTMDHARHGFLPRHRDTGILDSIGRFFGGDRGAPKRGSGKDSHHPARTAHYGSLPQKSHGRTQDENPVVHFFKNIVTPRTPPPSQGKGRGLSLSRFSWGAEGQRPGFGYGGRASDYKSAHKGFKGVDAQGTLSKIFKLGGRDSRSGSPMARR
On to B1, for which, in the assay with GA RS-specific T cells, the “Response of GA RS-specific T cells” value is listed as “did not respond” and the “% Potency” value turned out to be 0%.
